# In patent US20170342046A1, “Fatty Acid Cysteine-Based Conjugates and Their Use in Treating Medical Disorders” (Catabasis Pharmaceuticals, Inc., priority 2016, published 2017):
# Columns and labels:
# mouse C2C12 cells = test: Signs of toxicity seen in the Nrf2 activity assay; assay type: cell-based
# Procedure: (§1) Briefly, mouse C2C12 cells were treated with the test compounds when about 70% of the myotubes were differentiated (Day 13). For the assay, cells were treated with the test compounds for 24 hours in low glucose, 0.5% FBS DMEM and 0.1% BSA final concentration. The total RNA was harvested and the relative mRNA expression levels were assessed via RT-PCR with Hypoxanthine phosphoribosyltransferase (“HPRT”) as the internal control. Data were represented as the mean ΔmRNA/HPRT, error bars represent the standard error of the mean (SEM). Significance was determined by student's t-test in comparison to control. The Nrf2 gene expression targets include:
# The ΔmRNA/HPRT level for NQO1 was selected for this experiment. […] With this covalent conjugate, the two key bioactive components were the N-acetylcysteine amide (NACA) and the omega-3 fatty acid. […] However, the effect was modest and a high concentration of NACA was needed. […] In order to obtain the same level of activity as 12 μM of the fatty acid cysteine conjugate I-1, a much higher concentration of 2,500 μM of NACA was needed. In this assay, the omega-3 fatty acid DHA began to show signs of toxicity at concentration of >25 μM. […] In terms of combination of the individual components, the combination of A (consisting of 312.5 μM of NACA and 3.12 μM of DHA) and the combination of B (consisting of 625 μM of NACA and 6.25 μM of DHA) were used.
# [1] = tested on: transcription factor Nrf2; test: Assay to evaluate Nrf2 activity: mRNA of Nrf2 gene expression targets by RT-PCR (HPRT internal control); assay type: cell-based, mouse; conditions: for ΔmRNA/HPRT level for the NQO1 gene / ΔmRNA/HPRT level for the Gclc gene / ΔmRNA/HPRT level for the Gclm gene / ΔmRNA/HPRT level for the Gsta2 gene / ΔmRNA/HPRT level for the HMOX gene / ΔmRNA/HPRT level for the SRXN1 gene / ΔmRNA/HPRT level for the TXNRD1 gene: 24 hours, C2C12
# Text: The transcription factor Nrf2 and its repressor Keap1 regulate a large network of antioxidant genes. The mitochondrial inner membrane is particularly susceptible to damage by reactive oxygen species. Antioxidants can play a large role in preserving the mitochondrial inner membrane and maintaining the integrity of the respiratory chain. Holmstrom et al. (BIOLOGY OPEN (2013) 2, p. 761-770) have also shown that the Nrf2 pathway can potentially control the NADH substrates that are needed for mitochondrial respiration. Activation of the Nrf2 pathway is a way of improving the mitochondrial bioenergetics. The compounds of the invention were evaluated in an assay that was designed to assess the various antioxidant genes that could be regulated by the transcription factor Nrf2.
# as §1
# Gclc—Glutamate-cysteine ligase catalytic subunit; Gclm—Glutamate-cysteine ligase modifier subunit;
# Gsta2—Glutathione S-transferase A2;
# HMOX1—Heme oxygenase 1; NQO1—NAD(P)H dehydrogenase (quinone) 1;
# TXNRD1—Thioredoxin reductase 1.
# Compound I-1 was evaluated in this assay for any upregulation in the seven Nrf2 gene expression targets listed above.
# C2C12 cells = test: Metabolic flux analysis: oxygen consumption rate (OCR) in Sea Horse XF96 under H2O2 stress; assay type: cell-based, mouse; conditions: for OCR upon the addition of FCCP / OCR corrected for antimycin A, mitochondrial bioenergetics: 1 mM H2O2 stress; for OCR over time, bioenergetics: treated 4 hours prior to 1 mM H2O2 stress
# Procedure: C2C12 cells were cultured in Sea Horse XF96 plates according to the manufacturer's instructions and established protocols (see www.seahorsebio.com/products/instruments/selection.php; Yao et al., PROC. NATL. ACAD. SCI. USA (2009) 106, p. 14670-14675).
# On the day of the assay, cells were incubated with the compounds of the invention for either 4 hours or 24 hours. The short 4 hour incubation with the test compounds allowed one to evaluate for improvement of mitochondrial bioenergetics under the “scavengers” conditions (i.e. conditions in which the test compounds could effectively scavenge the various reactive oxygen species). The longer 24 hour incubation with the test compounds allowed one to evaluate for improvement of mitochondrial bioenergetics under the Nrf2 conditions (i.e. conditions in which the test compounds could effectively activate the Nrf2 antioxidant pathway in order to cope with the various reactive oxygen species). For these assays, H2O2 was used as the source of reactive oxygen species. Under the general stress test, cells were then exposed to either 500 μM of H2O2 or 1 mM of H2O2 for 4 hours before the evaluation in the Sea Horse system. Baseline measurements of the oxygen consumption rate (OCR) were taken before sequential injections of the various mitochondrial inhibitors. Readings were taken after addition of the mitochondrial inhibitor before injection of the subsequent inhibitors. The mitochondrial inhibitors that were used included oligomycin (1 μM), FCCP (1 μM) and Antimycin A (1 μM). Oligomycin is a known inhibitor ATP synthase; addition of this reagent essentially stopped the synthesis of ATP. Antimycin A inhibits the electron transport chain in the mitochondria. FCCP essentially uncouples the mitochondria and allows one to measure the maximum respiration. Measurements of the OCR following the addition of FCCP allows one to assess the mitochondrial content. An improvement in the OCR following the addition of FCCP is a reflection of the improvement in bioenergetics, when the proper control groups were put in place. The OCR were automatically calculated and recorded by the Sea Horse XF96 software. Ten measurements were taken at each of the indicated time points. Statistical significance in different treatment groups were determined by an ANOVA, followed by a Newman-Keuls post hoc analysis. Compounds I-1, I-3 and 1-5 were evaluated for mitochondrial bioenergetics under various conditions.
# [2] = tested on: transcription factor Nrf2; test: Assay to evaluate Nrf2 activity: mRNA of Nrf2 gene expression targets by RT-PCR (HPRT internal control); assay type: cell-based, mouse; conditions: synergy experiment
# [3] = tested on: human epithelial cells from CF patients with homozygous ΔF508 mutation; conditions: 250 μM; cited from earlier work
molecule,measurement,setting,value
"CC/C=C\C/C=C\C/C=C\C/C=C\C/C=C\C/C=C\CCC(=O)O [DHA, all-cis-4,7,10,13,16,19-docosahexaenoic acid, reference compound]",concentration at which signs of toxicity began to show,mouse C2C12 cells,> 25 µM
same,mRNA level of the NQO1 gene,"[1]; tested at up to 12 μM, FIG. 6",did not observe any upregulation
catalase [reference compound],OCR upon the addition of FCCP (FIG. 1A),"C2C12 cells; 5K U/mL catalase positive control, 4 hours, 500 μM H2O2 stress",significant restoration of the OCR upon the addition of FCCP
same,OCR upon the addition of FCCP,"C2C12 cells; 5K U/mL catalase positive control, 4 hours",increase in the OCR upon the addition of FCCP; almost to the same level observed with the normal control groups
"CC(=O)N[C@@H](CS)C(=O)O [NAC, N-acetyl cysteine, reference compound]",OCR upon the addition of FCCP (FIG. 1A),"C2C12 cells; 5 mM NAC positive control, 4 hours, 500 μM H2O2 stress",significant restoration of the OCR upon the addition of FCCP
same,OCR upon the addition of FCCP,"C2C12 cells; 5 mM NAC positive control, 4 hours",increase in the OCR upon the addition of FCCP; almost to the same level observed with the normal control groups
"CC/C=C\C/C=C\C/C=C\C/C=C\C/C=C\C/C=C\CCC(=O)N[C@@H](CSSC(C)(C)CNC(=O)c1cccnc1)C(=O)O [I-3, N-((4Z,7Z,10Z,13Z,16Z,19Z)-docosa-4,7,10,13,16,19-hexaenoyl)-S-((2-methyl-1-(nicotinamido)propan-2-yl)thio)-L-cysteine]","OCR over time, bioenergetics",C2C12 cells; 1 μM and 10 μM,dose-dependent increase in bioenergetics
same,"OCR corrected for antimycin A, mitochondrial bioenergetics","C2C12 cells; 10 μM, 4 hours","significant improvement in mitochondrial bioenergetics, essentially comparable to the positive control NAC"
"CC/C=C\C/C=C\C/C=C\C/C=C\C/C=C\C/C=C\CCC(=O)N[C@@H](CSSC(C)(C)CNC(=O)CC(O)C[N+](C)(C)C)C(N)=O (stereo partly drawn) [I-5, 4-((2-(((R)-3-amino-2-((4Z,7Z,10Z,13Z,16Z,19Z)-docosa-4,7,10,13,16,19-hexaenamido)-3-oxopropyl)disulfanyl)-2-methylpropyl)amino)-2-hydroxy-N,N,N-trimethyl-4-oxobutan-1-aminium]","OCR over time, bioenergetics",C2C12 cells; 1 μM and 10 μM,dose-dependent increase in bioenergetics
same,"OCR corrected for antimycin A, mitochondrial bioenergetics","C2C12 cells; 10 μM, 4 hours","significant improvement in mitochondrial bioenergetics, essentially comparable to the two positive control arms, catalase or NAC"
"CC/C=C\C/C=C\C/C=C\C/C=C\C/C=C\C/C=C\CCC(=O)N[C@@H](CSSC(C)(C)CNC(=O)c1cccnc1)C(N)=O [I-1, N-(2-(((R)-3-amino-2-((4Z,7Z,10Z,13Z,16Z,19Z)-docosa-4,7,10,13,16,19-hexaenamido)-3-oxopropyl)disulfanyl)-2-methylpropyl)nicotinamide]","expression of mRNA of NQO1, dose response (FIG. 6)",[2],dose-dependent increase in the expression of mRNA of NQO1
same,"OCR over time, bioenergetics (FIG. 2A)","C2C12 cells; 1 μM and 10 μM, treated 24 hours prior to 500 μM H2O2 stress","significant improvement in bioenergetics, and the effect was dose-dependent"
same,OCR upon the addition of FCCP (FIG. 1A),"C2C12 cells; 1 μM compound, treated 4 hours, then 500 μM H2O2 stress","significant restoration of the OCR upon the addition of FCCP, essentially to the same level observed with the normal control group and the positive control groups"
same,"OCR corrected for antimycin A, mitochondrial bioenergetics (FIG. 1B)","C2C12 cells; 1 μM or 10 μM, 4 hours, 500 μM H2O2 stress",restored mitochondrial bioenergetics to about the same level observed with normal cells
same,"OCR corrected for antimycin A, bioenergetics (FIG. 2B)","C2C12 cells; 1 μM, 24 hours, 500 μM H2O2 stress",restored the bioenergetics to the same level observed with the normal control group
same,OCR upon the addition of FCCP (FIG. 1A),"C2C12 cells; 10 μM compound, treated 4 hours, then 500 μM H2O2 stress","significant restoration of the OCR upon the addition of FCCP, essentially to the same level observed with the normal control group and the positive control groups"
same,OCR over time compared with control group and the two positive control groups (FIG. 2A),"C2C12 cells; 10 μM, 24 hours, 500 μM H2O2 stress",considerably higher
same,increase in the OCR compared with the two positive control groups (catalase or NAC) (FIG. 2B),"C2C12 cells; 10 μM, 24 hours, 500 μM H2O2 stress, corrected for antimycin A",~4 fold
same,ΔmRNA/HPRT level for the NQO1 gene,[1]; 6.25 μM,an increase in the expression of mRNA
same,ΔmRNA/HPRT level for the Gclc gene,[1]; 12.5 μM,significant increase in the expression of mRNA
same,ΔmRNA/HPRT level for the Gclm gene,[1]; 12.5 μM,significant increase in the expression of mRNA
same,ΔmRNA/HPRT level for the Gsta2 gene,[1]; 12.5 μM,significant increase in the expression of mRNA
same,ΔmRNA/HPRT level for the HMOX gene,[1]; 12.5 μM,significant increase in the expression of mRNA
same,ΔmRNA/HPRT level for the NQO1 gene,[1]; 12.5 μM,two-fold increase
same,ΔmRNA/HPRT level for the SRXN1 gene,[1]; 12.5 μM,significant increase in the expression of mRNA
same,ΔmRNA/HPRT level for the TXNRD1 gene,[1]; 12.5 μM,significant increase in the expression of mRNA
same,ΔmRNA/HPRT level for the NQO1 gene,[1]; 1.56 to 3.12 μM,No significant increase
same,ΔmRNA/HPRT level for the Gclc gene,[1]; 1.56 to 6.25 μM,No significant increase
same,ΔmRNA/HPRT level for the Gclm gene,[1]; 1.56 to 6.25 μM,No significant increase
same,ΔmRNA/HPRT level for the Gsta2 gene,[1]; 1.56 to 6.25 μM,No significant increase
same,ΔmRNA/HPRT level for the HMOX gene,[1]; 1.56 to 6.25 μM,No significant increase
same,ΔmRNA/HPRT level for the SRXN1 gene,[1]; 1.56 to 6.25 μM,No significant increase
same,ΔmRNA/HPRT level for the TXNRD1 gene,[1]; 1.56 to 6.25 μM,No significant increase
same,Nrf2 pathway activation compared with individual components or their combination,"[1]; NQO1 mRNA, FIG. 6",able to increase the Nrf2 pathway synergistically
same,concentration at which maximal response of NQO1 mRNA was observed,"[1]; synergy experiment, FIG. 6",12 µM
NCCSSCCN [cystamine],CFTR at the plasma membrane,[3],restoration of the CFTR to the plasma membrane
same,autophagy,[3],up-regulation of autophagy
